The structures appear in SMILES notation.

Holding throughout (experiment): Pre-emergence soil-applied, greenhouse: visual weed control
Holding throughout (format): in vivo

Experiment [1] relates to Brachiaria platyphylla (Groseb.) Nash or Urochloa platyphylla (Nash) R.D. Webster (BRAPP). The source says: (§1) Seeds or nutlets of the desired test plant species were planted in a soil matrix prepared by mixing a loam soil (e.g., 32 percent silt, 23 percent clay, and 45 percent sand, with a pH of about 6.5 and an organic matter content of about 1.9 percent) and calcareous grit in an 80 to 20 ratio. The soil matrix was contained in plastic pots with a volume of 1 quart and a surface area of 83.6 square centimeters (cm^2).
(§2) Treatments consisted of the benzyl ester of 4-amino-3-chloro-5-fluoro-6-(4-chloro-2-fluoro-3-methoxy-phenyl)pyridine-2-carboxylic acid (compound A) formulated as an SC (suspension concentrate) and various herbicidal components alone and in combination. Forms of compound A were applied on an acid equivalent basis.
(§3) Treatment requirements were calculated based upon the rates being tested, the concentration of active ingredient or acid equivalent in the formulation, and a 12 mL application volume at a rate of 187 L/ha.
(§4) For treatments comprised of formulated compounds, measured amounts of compounds were placed individually in 25 mL glass vials and diluted in a volume of 1.25% (v/v) Agri-Dex® crop oil concentrate (COC) to obtain 12× stock solutions. […] Application solutions were prepared by adding an appropriate amount of each stock solution (e.g., 1 mL) and diluted to the appropriate final concentrations with the addition of 10 mL of an aqueous mixture of 1.25% (v/v) COC so that the final spray solutions contained 1.25% (v/v) COC.
(§5) For treatments comprised of formulated and technical compounds, weighed amounts of the technical materials were placed individually in 25 mL glass vials and dissolved in a volume of 97:3 (v/v) acetone/DMSO to obtain 12× stock solutions, and measured amounts of the formulated compounds were placed individually in 25 mL glass vials and diluted in a volume of 1.5% (v/v) COC or water to obtain 12× stock solutions. […] Application solutions were prepared by adding an appropriate amount of each stock solution (e.g., 1 mL) and diluted to the appropriate final concentrations with the addition of an appropriate amount of an aqueous mixture of 1.5% (v/v) COC so that the final spray solutions contained 1.25% (v/v) COC. As required, additional water and/or 97:3 (v/v) acetone/DMSO was added to individual application solutions so that the final acetone and DMSO concentrations of the application solutions being compared were 8.1% and 0.25%, respectively.
(§6) All stock solutions and applications solutions were visually inspected for compound compatibility prior to application. Spray solutions were applied to the soil with an overhead Mandel track sprayer equipped with a 8002E nozzles calibrated to deliver 187 L/ha over an application area of 0.503 m^2 at a spray height of 18 inches (46 cm) above average pot height. Control pots were sprayed in the same manner with the solvent blank.
(§7) The treated and control pots were placed in a greenhouse and top watered as needed. When required to ensure good germination and healthy plants, a fungicide treatment and/or other chemical or physical treatment was applied. The pots were maintained in a greenhouse with an approximate 14 hr photoperiod which was maintained at about 29° C. during the day and 26° C. during the night. Nutrients (Peters® Excel 15-5-15 5-Ca 2-Mg) were applied in the irrigation solution as needed and water was added on a regular basis. Supplemental lighting was provided with overhead metal halide 1000-Watt lamps as necessary. After approximately 4 weeks, the condition of the test plants as compared with that of the untreated plants was determined visually and scored on a scale of 0 to 100 percent where 0 corresponds to no injury or growth inhibition and 100 corresponds to complete kill.
(§8) Colby's equation was used to determine the herbicidal effects expected from the mixtures (Colby, S. R. 1967. Calculation of the synergistic and antagonistic response of herbicide combinations. Weeds 15:20-22.). […]

The test system of experiment [2] is Echinochloa colonum (L.) Link (ECHCO).
From the text: as §1, §2, §3, §4, §5, §6, §7, §8

Experiment [3] concerns Echinochloa crus-galli (L.) P. Beauv. (ECHCG).
From the text: as §1, §2, §3, §4, §5, §6, §7, §8

In experiment [4] the test system is Sesbania exaltata (Raf.) Cory/Rydb. Ex Hill (SEBEX). Particulars: Compound A Benzyl Ester 16 g ae/ha alone.
From the text: as §1, §2, §3, §4, §5, §6, §7, §8

Experiment [5] has as its system Setaria faberi Herrm. (SETFA).
From the text: as §1, §2, §3, §4, §5, §6, §7, §8

In experiment [6] the test system is Xanthium strumarium L. (XANST). Particulars: 27 DAA.
From the text: as §1, §2, §3, §4, §5, §6, §7, §8

Setting [7] is: Compound A Benzyl Ester 16 g ae/ha alone.
The mark [8] stands for this setting: Compound A Benzyl Ester 32 g ae/ha alone.

In the case of `COc1c(Cl)ccc(-c2nc(C(=O)OCc3ccccc3)c(Cl)c(N)c2F)c1F` [Compound A Benzyl Ester, benzyl ester of 4-amino-3-chloro-5-fluoro-6-(4-chloro-2-fluoro-3-methoxy-phenyl)pyridine-2-carboxylic acid], the figures for the “Visual Weed Control (%) - 33 DAA BRAPP Obs” value in experiment [1] (setting [7]) and in experiment [1] (setting [8]) were 23% and 50%, respectively. The “Visual Weed Control (%) - 33 DAA ECHCO Obs” value came out at 12% in experiment [2] (setting [7]) and 3% in experiment [2] (setting [8]). Further, the “Visual Weed Control (%) - 33 DAA ECHCG Obs” value in experiment [3] (setting [7]) was found to be 20%; in experiment [3] (setting [8]), 33%. In addition, the “Visual Weed Control (%) - 33 DAA SEBEX Obs” value in experiment [4] is 40%. Moreover, the “Visual Weed Control (%) - 33 DAA SETFA Obs” value in experiment [5] (setting [7]) and in experiment [5] (setting [8]) was 13% in each case.

For the molecule `CSC(=O)c1c(C(F)F)nc(C(F)(F)F)c(C(=O)SC)c1CC(C)C` [Dithiopyr, S,S′-dimethyl-2-(difluoromethyl)-4-(2-methylpropyl)-6-(trifluoromethyl)-3,5-pyridinedicarbothioate], the entries for the “Visual Weed Control (%) Obs” value in experiment [6] (140 g ai/ha) and in experiment [6] (280 g ai/ha) were 0% and 17%, respectively.
